Legend:
CbrR = biological target: T1, CbrR (Campylobacter jejuni, UniProt Q0PAM5); assay: DRaCALA on nitrocellulose; format: binding; conditions: 10 mM Tris-HCl pH 8, 100 mM NaCl, 5 mM MgCl2
T1 construct: codon 2 to penultimate codon, C-terminal Myc-6xHis tag kept, pBAD/myc-HisA (pDAR6203), E. coli Top10

WspR [1] = biological target: T2, WspR (Pseudomonas aeruginosa, UniProt Q9HXT9); assay: DRaCALA on nitrocellulose; also TLC of c-di-GMP synthesis; format: biochemical; conditions: labelled compound ([alpha-32P]GTP); 10 mM Tris-HCl pH 8, 100 mM NaCl, 5 mM MgCl2 (DRaCALA); 10 mM MgCl2, room temperature (TLC)
T2 construct: codon 2 to penultimate codon, from pVL791, C-terminal Myc-6xHis tag kept, pBAD/myc-HisA (pDAR6535), E. coli Top10

WspR [2] = biological target: T2, WspR; assay: DRaCALA on nitrocellulose; format: biochemical; conditions: labelled compound ([32P]c-di-GMP made by WspR); 10 mM Tris-HCl pH 8, 100 mM NaCl, 5 mM MgCl2

T2 sequence (Q9HXT9 entry or part of it): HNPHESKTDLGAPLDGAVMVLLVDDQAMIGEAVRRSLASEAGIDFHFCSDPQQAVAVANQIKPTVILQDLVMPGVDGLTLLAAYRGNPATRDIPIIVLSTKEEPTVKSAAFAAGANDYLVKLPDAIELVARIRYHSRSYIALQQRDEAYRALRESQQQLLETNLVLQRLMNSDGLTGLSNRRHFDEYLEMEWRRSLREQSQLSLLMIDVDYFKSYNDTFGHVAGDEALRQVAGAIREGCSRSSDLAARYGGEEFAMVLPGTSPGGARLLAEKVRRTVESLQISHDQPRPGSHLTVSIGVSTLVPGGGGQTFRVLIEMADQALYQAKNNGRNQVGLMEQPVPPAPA
T1 sequence (Q0PAM5 entry or part of it): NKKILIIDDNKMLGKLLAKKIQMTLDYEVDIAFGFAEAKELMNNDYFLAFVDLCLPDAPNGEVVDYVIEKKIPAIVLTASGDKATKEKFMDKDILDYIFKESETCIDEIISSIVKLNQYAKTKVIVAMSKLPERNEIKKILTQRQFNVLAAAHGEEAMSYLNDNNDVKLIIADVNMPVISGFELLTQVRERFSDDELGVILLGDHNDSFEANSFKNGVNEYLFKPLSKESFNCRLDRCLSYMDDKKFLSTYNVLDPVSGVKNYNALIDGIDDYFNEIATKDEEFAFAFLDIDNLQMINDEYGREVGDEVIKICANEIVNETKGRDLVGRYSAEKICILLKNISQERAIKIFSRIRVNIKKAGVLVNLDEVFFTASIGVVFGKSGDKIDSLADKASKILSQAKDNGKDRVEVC

Compound	DRaCALA on nitrocellulose (CbrR; labelled compound ([alpha-32P]GTP))	DRaCALA on nitrocellulose; also TLC of c-di-GMP synthesis (WspR [1])	DRaCALA on nitrocellulose (CbrR; labelled compound ([32P]c-di-GMP made by WspR))	DRaCALA on nitrocellulose (WspR [2])
Nc1nc2c(ncn2[C@@H]2O[C@H](COP(=O)(O)OP(=O)(O)OP(=O)(O)O)[C@@H](O)[C@H]2O)c(=O)[nH]1 [GTP]	recombinant WspR and CbrR bound both GTP and c-di-GMP, but VidA and VidB did not	recombinant WspR and CbrR bound both GTP and c-di-GMP, but VidA and VidB did not	–	–
Nc1nc2c(ncn2[C@@H]2O[C@@H]3COP(=O)(O)O[C@H]4[C@@H](O)[C@H](n5cnc6c(=O)[nH]c(N)nc65)O[C@@H]4COP(=O)(O)O[C@H]3[C@H]2O)c(=O)[nH]1 [c-di-GMP]	–	–	recombinant WspR and CbrR bound both GTP and c-di-GMP, but VidA and VidB did not	recombinant WspR and CbrR bound both GTP and c-di-GMP, but VidA and VidB did not

From publication PMC10790790, “Viscosity-dependent determinants of Campylobacter jejuni impacting the velocity of flagellar motility” (mBio, 2023)
